# Measured values as given in patent US7511065B2, “Mixed lineage kinase modulators” (Eli Lilly and Company, priority 2002, dated 2009).
# pIC50: −log10 of the molar value.
# Molecular target: T1, MLK-7 (Homo sapiens, UniProt Q9NYL2)
# T1 construct: GST; His tag; made in house; host or cells: Sf9 insect cells (baculovirus, pVL1392)
# Assay: In vitro assay of purified MLK-7 kinase activity (33P transfer from ATP to myelin basic protein)
# Format: biochemical
# Settings: recombinant GST-tagged MLK-7 at 1 nm, 30 uM ATP, 5 uM MBP substrate, 2 hours room temperature; read-out: MLK7 IC50
# Text: In Vitro Assay of Purified Mixed Lineage Kinase 7 (MLK-7) Activity:
# Briefly, recombinant glutathione-s-transferase (GST) tagged MLK-7 is expressed in Sf9 cells using a recombinant baculovirus created using baculovirus transfer vector pVL1392 modified to contain a GST and histidine tag. The recombinant protein is purified over a glutathione column and subsequently used for in vitro kinase assays with myelin basic protein (MBP) as the substrate for phosphorylation. The in vitro kinase reaction is run with recombinant MLK-7 at 1 nm and various concentrations of test compound in a reaction mixture containing 2 mM DTT, 30 uM ATP, 5 mM MgCl2, 5 uM MBP, 4% DMSO, 5 uCi 33P in 44 mM HEPES, (pH 7.4). The reaction is carried out for 2 hours at room temperature and then stopped by the addition of phosphoric acid to 5.5%. The phosphorylated MBP is collected on a filter and radioactivity associated with the membrane measured using a scintillation counter. Inhibitors are identified by the ability to reduce the transfer of radioactive phosphate from ATP to MBP compared to controls run without test compound.
# IC50 values, defined as the concentration of test compound required to decrease the transfer of radioactive phosphate from ATP to MBP by 50%, are then determined. Ki values (which refers to the dissociation constant of an enzyme-antagonist complex and serves as an index of ligand binding) for each respective test compound can also be calculated by application of the Cheng-Prusoff equation as described in Cheng et al., Relationship Between The Inhibition Constant (Ki) and The Concentration of Inhibitor Which Causes 50% Inhibition (IC50) of an Enzymatic Reaction, Biochem. Pharmacol., 22: […]; (1973).
# Representative compounds of the present invention have an IC50 in the MLK-7 kinase assay of ≦10,000 nM Table I (see infra.) provides IC50 data from the afore mentioned MLK-7 kinase assay for a representative sample of the exemplified compounds of the present invention.
# T1 sequence (Q9NYL2 1-455 isoform Q9NYL2-2): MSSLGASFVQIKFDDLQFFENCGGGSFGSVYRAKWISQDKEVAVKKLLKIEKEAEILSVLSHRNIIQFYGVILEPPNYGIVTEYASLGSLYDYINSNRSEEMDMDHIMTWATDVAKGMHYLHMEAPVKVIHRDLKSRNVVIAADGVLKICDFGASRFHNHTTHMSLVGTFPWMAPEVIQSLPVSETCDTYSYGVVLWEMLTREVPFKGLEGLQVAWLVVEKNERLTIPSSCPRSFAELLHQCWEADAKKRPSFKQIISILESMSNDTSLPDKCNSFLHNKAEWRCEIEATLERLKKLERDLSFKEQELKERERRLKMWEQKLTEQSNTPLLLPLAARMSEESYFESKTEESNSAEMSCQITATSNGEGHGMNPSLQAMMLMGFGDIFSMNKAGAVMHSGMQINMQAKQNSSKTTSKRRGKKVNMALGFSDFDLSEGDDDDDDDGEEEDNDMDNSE
row,pIC50,SMILES
1,≥ 7.00,"Brc1ccc(-c2ccc3c(-c4c(-c5ccccn5)nn5c4CCC5)ccnc3c2)cc1 [Example 23, 7-(4-Bromophenyl)-4-(2-pyridin-2-yl-5,6-dihydro-4H-pyrrolo[1,2-b]pyrazol-3-yl)quinoline Trifluoroacetic Acid]"
2,≥ 6.00,"CCSc1ccc(-c2ccc3c(-c4c(-c5ccccn5)nn5c4CCC5)ccnc3c2)cc1 [Example 24, 7-(4-Ethylsulfanylphenyl)-4-(2-pyridin-2-yl-5,6-dihydro-4H-pyrrolo[1,2-b]pyrazol-3-yl)quinoline Trifluoroacetic Acid]"
3,≥ 6.00,"CSc1ccc(-c2ccc3c(-c4c(-c5ccccn5)nn5c4CCC5)ccnc3c2)cc1 [Example 25, 7-(4-Methylsulfanylphenyl)-4-(2-pyridin-2-yl-5,6-dihydro-4H-pyrrolo[1,2-b]pyrazol-3-yl)quinoline Trifluoroacetic Acid]"
4,≥ 7.00,"N#Cc1ccc(-c2ccc3c(-c4c(-c5ccccn5)nn5c4CCC5)ccnc3c2)cc1 [Example 26, 4-[4-(2-Pyridin-2-yl-5,6-dihydro-4H-pyrrolo[1,2-b]pyrazol-3-yl)quinolin-7-yl]benzonitrile Trifluroacetic Acid]"
5,≥ 7.00,"c1ccc(-c2nn3c(c2-c2ccnc4cc(-c5ccc6[nH]ccc6c5)ccc24)CCC3)nc1 [Example 27, 7-(1H-Indol-5-yl)-4-(2-pyridin-2-yl-5,6-dihydro-4H-pyrrolo[1,2-b]pyrazol-3-yl)quinoline Ditrifluoroacetic Acid]"
6,≥ 7.00,"CC(=O)c1ccc(-c2ccc3c(-c4c(-c5ccccn5)nn5c4CCC5)ccnc3c2)cc1 [Example 28, 1-{4-[4-(2-Pyridin-2-yl-5,6-dihydro-4H-pyrrolo[1,2-b]pyrazol-3-yl)quinolin-7-yl]phenyl}ethanone Trifluoroacetic Acid]"
7,≥ 7.00,"O=C(O)CCc1ccc(-c2ccc3c(-c4c(-c5ccccn5)nn5c4CCC5)ccnc3c2)cc1 [Example 30, 3-{4-[4-(2-Pyridin-2-yl-5,6-dihydro-4H-pyrrolo[1,2-b]pyrazol-3-yl)quinolin-7-yl]phenyl}propionic Acid Trifluoroacetic Acid]"
8,≥ 6.00,"COc1ccc(-c2ccc3c(-c4c(-c5ccccn5)nn5c4CCC5)ccnc3c2)cc1C [Example 32, 7-(4-Methoxy-3-methylphenyl)-4-(2-Pyridin-2-yl-5,6-dihydro-4H-pyrrolo[1,2-b]pyrazol-3-yl)quinoline Trifluoroacetic Acid]"
9,≥ 7.00,"Cc1ccc(-c2ccc3c(-c4c(-c5ccccn5)nn5c4CCC5)ccnc3c2)cc1N [Example 33, 2-Methyl-5-[4-(2-Pyridin-2-yl-5,6-dihydro-4H-pyrrolo[1,2-b]pyrazol-3-yl)quinolin-7-yl]phenylamine Ditrifluoroacetic Acid]"
10,≥ 7.00,"c1ccc(-c2nn3c(c2-c2ccnc4cc(-c5ccncc5)ccc24)CCC3)nc1 [Example 34, 7-Pyridin-4-yl-4-(2-Pyridin-2-yl-5,6-dihydro-4H-pyrrolo[1,2-b]pyrazol-3-yl)quinoline Ditrifluoroacetic Acid]"
11,≥ 7.00,"c1ccc(-c2nn3c(c2-c2ccnc4cc(-c5cccnc5)ccc24)CCC3)nc1 [Example 35, 7-Pyridin-3-yl-4-(2-Pyridin-2-yl-5,6-dihydro-4H-pyrrolo[1,2-b]pyrazol-3-yl)quinoline Ditrifluoroacetic Acid]"
12,≥ 6.00,"O=[N+]([O-])c1ccccc1-c1ccc2c(-c3c(-c4ccccn4)nn4c3CCC4)ccnc2c1 [Example 36, 7-(2-Nitrophenyl)-4-(2-pyridin-2-yl-5,6-dihydro-4H-pyrrolo[1,2-b]pyrazol-3-yl)quinoline Trifluoroacetic Acid]"
13,≥ 7.00,"CC(=O)Nc1cccc(-c2ccc3c(-c4c(-c5ccccn5)nn5c4CCC5)ccnc3c2)c1 [Example 37, N-{3-[4-(2-pyridin-2-yl-5,6-dihydro-4H-pyrrolo[1,2-b]pyrazol-3-yl)quinolin-7-yl]phenyl}-acetamide Trifluoroacetic Acid]"
14,≥ 7.00,"C[S+]([O-])c1ccc(-c2ccc3c(-c4c(-c5ccccn5)nn5c4CCC5)ccnc3c2)cc1 (stereo not drawn) [Example 38, 7-(4-Methanesulfinylphenyl)-4-(2-pyridin-2-yl-5,6-dihydro-4H-pyrrolo[1,2-b]pyrazol-3-yl)quinoline Trifluoroacetic Acid]"
15,≥ 7.00,"c1ccc(-c2nn3c(c2-c2ccnc4cc(-c5ccc6c(c5)OCO6)ccc24)CCC3)nc1 [Example 40, 7-Benzo[1,3]dioxol-5-yl-4-(2-pyridin-2-yl-5,6-dihydro-4H-pyrrolo[1,2-b]pyrazol-3-yl)quinoline Trifluoroacetic Acid]"
16,≥ 7.00,"O=C(O)c1ccc(-c2ccc3c(-c4c(-c5ccccn5)nn5c4CCC5)ccnc3c2)cc1 [Example 41, 4-[4-(2-pyridin-2-yl-5,6-dihydro-4H-pyrrolo[1,2-b]pyrazol-3-yl)quinolin-7-yl]benzoic Acid Trifluoroacetic Acid]"
17,≥ 5.00,"FC(F)(F)c1cc(-c2ccc3c(-c4c(-c5ccccn5)nn5c4CCC5)ccnc3c2)cc(C(F)(F)F)c1 [Example 42, 7-(3,5-Bis-trifluromethylphenyl)-4-(2-pyridin-2-yl-5,6-dihydro-4H-pyrrolo[1,2-b]pyrazol-3-yl)quinoline Trifluoroacetic Acid]"
18,≥ 7.00,"O=C(O)c1cccc(-c2ccc3c(-c4c(-c5ccccn5)nn5c4CCC5)ccnc3c2)c1 [Example 43, 3-[4-(2-pyridin-2-yl-5,6-dihydro-4H-pyrrolo[1,2-b]pyrazol-3-yl)quinolin-7-yl]benzoic Acid Trifluoroacetic Acid]"
19,≥ 5.00,"O=C(O)c1ccccc1-c1ccc2c(-c3c(-c4ccccn4)nn4c3CCC4)ccnc2c1 [Example 44, 2-[4-(2-pyridin-2-yl-5,6-dihydro-4H-pyrrolo[1,2-b]pyrazol-3-yl)quinolin-7-yl]benzoic Acid Trifluoroacetic Acid]"
20,≥ 6.00,"CC(C)Cc1ccc(-c2ccc3c(-c4c(-c5ccccn5)nn5c4CCC5)ccnc3c2)cc1 [Example 45, 7-(4-Isobutylphenyl)-4-(2-pyridin-2-yl-5,6-dihydro-4H-pyrrolo[1,2-b]pyrazol-3-yl)quinoline Trifluoroacetic Acid]"
21,≥ 7.00,"O=C(O)COc1ccc(-c2ccc3c(-c4c(-c5ccccn5)nn5c4CCC5)ccnc3c2)cc1 [Example 46, {4-[4-(2-pyridin-2-yl-5,6-dihydro-4H-pyrrolo[1,2-b]pyrazol-3-yl)quinolin-7-yl]phenoxy}acetic Acid Trifluoroacetic Acid]"
22,≥ 6.00,"c1ccc(-c2nn3c(c2-c2ccnc4cc(-c5cc6ccccc6s5)ccc24)CCC3)nc1 [Example 47, 7-Benzo[b]thiophen-2-yl-4-(2-pyridin-2-yl-5,6-dihydro-4H-pyrrolo[1,2-b]pyrazol-3-yl)quinoline Trifluoroacetic Acid]"
23,≥ 7.00,"c1ccc(-c2nn3c(c2-c2ccnc4cc(-c5cc6ccccc6o5)ccc24)CCC3)nc1 [Example 48, 7-Benzofuran-2-yl-4-(2-pyridin-2-yl-5,6-dihydro-4H-pyrrolo[1,2-b]pyrazol-3-yl)quinoline Trifluoroacetic Acid]"
24,≥ 7.00,"c1ccc(-c2nn3c(c2-c2ccnc4cc(-c5ccsc5)ccc24)CCC3)nc1 [Example 50, 4-(2-pyridin-2-yl-5,6-dihydro-4H-pyrrolo[1,2-b]pyrazol-3-yl)-7-thiophen-3-yl-quinoline Trifluoroacetic Acid]"
